Tested on: not given
Experiment: not given
Details: following peripheral administration in humans; cited from earlier work

SMILES	fraction of drug converted to anisoyl-GABA
COc1ccc(C(=O)N2CCCC2=O)cc1 [aniracetam, N-anisoyl-2-pyrrolidinone]	about 80%

Tested on: AMPA receptors
Experiment: In vitro physiological testing: field EPSPs in slices of rat hippocampus (CA1)
Assay type: cell-based, rat (Sprague-Dawley)
Details: rat hippocampal slices, 15-minute perfusion, paired-pulse, second response
Protocol: The physiological effects of the compounds of this invention were determined by in vitro tests using slices of rat hippocampus according to the following procedure. Excitatory responses (field EPSPs) were measured in hippocampal slices, which are maintained in a recording chamber continuously perfused with artificial cerebrospinal fluid (ACSF). During a 15-minute interval, the perfusion medium was switched to one containing various concentrations of the test compounds. Responses collected immediately before and at the end of drug perfusion were superimposed in order to calculate both the percent increase in EPSP amplitude and the percent increase in the width of the response at one-half the peak height (half-width).
To conduct these tests, the hippocampus was removed from anesthetized, 2-month old Sprague-Dawley rats, and in vitro slices (400 micrometers thick) were prepared and maintained in an interface chamber at 35° C. using conventional techniques. This is the procedure used by Dunwiddie and Lynch, as reported in J. Physiol. 276:353-367 (1978). The chamber was constantly perfused at 0.5 mL/min with ACSF containing (in mM): NaCl, 124; KCl, 3; KH2 PO4, 1.25; MgSO4, 2.5; CaCl2, 3.4; NaHCO3, 26; glucose, 10; and L-ascorbate, 2. A bipolar nichrome stimulating electrode was positioned in the dendritic layer (stratum radiatum) of the hippocampal subfield CA1 close to the border of subfield CA3.
Current pulses (0.1 msec) through the stimulating electrode activated a population of the Schaffer-commissural (SC) fibers, which arise from neurons in the subdivision CA3 and terminate in synapses on the dendrites of CA1 neurons. Activation of these synapses causes them to release the transmitter glutamate. Glutamate binds to the post-synaptic AMPA receptors, which then transiently open an associated ion channel and permit a sodium current to enter the postsynaptic cell. This current results in a voltage in the extracellular space (the field excitatory post-synaptic potential or field "EPSP"), which is recorded by a high impedance recording electrode positioned in the middle of the stratum radiatum of CA1.
With the intensity of the stimulation current adjusted to produce half-maximal EPSPs (typically about 1.5-2.0 mV), paired stimulation pulses were given every 40 seconds with an interpulse interval of 200 msec. The field EPSPs of the second response were digitized and analyzed to determine amplitude and half-width. If the responses are stable for 15-30 minutes (baseline), test compounds were added to the perfusion lines for a period of about 15 minutes. The perfusion was then changed back to regular ACSF.
Paired-pulse stimulation is used in this type of test because stimulation of the SC fibers in part activates interneurons that generate an inhibitory postsynaptic potential (IPSP) in the pyramidal cells of CA1. This feed-forward IPSP typically sets in after the EPSP reaches its peak. The feed-forward IPSP accelerates the repolarization and shortens the decay phase of the EPSP, and could thereby partially mask the effects of the test compounds. One of the relevant features of the feed-forward IPSP is that it cannot be reactivated for several hundred milliseconds following a stimulation pulse. This phenomenon can be employed to advantage to eliminate IPSP by delivering paired pulses separated by 200 milliseconds and using the second ("primed") response for data analysis.
The field EPSP recorded in field CA1 after stimulation of CA3 axons is known to be mediated by AMPA receptors: the receptors are present in the synapses, as reported by Kessler, et al., Brain Res. 560:337-341 (1991), and drugs that selectively block the receptor selectively block the field EPSP. […] See, for example, Staubli, et al., Psychobiology 18:377-381 (1990); Xiao, et al., Hippocampus 1:373-380 (1991); and Staubli, et al., Hippocampus 2:49-58 (1992). […]

SMILES	estimated concentration required to increase the amplitude of the EPSP to 25% above baseline (+25% Amplitude) [mM]	estimated concentration required to increase the half-width of the EPSP by 50% (+50% Half-Width) [mM]
COCc1ccc2c(c1)OC1CCCN1C2=O (racemic) [Compound VI, (R, S)-6-Methoxymethyl-2,3-dihydro-1H-pyrrolo[2,1-b][1,3]benzoxazine-9(3aH)-one]	0.1	0.2
COCc1ccc2c(c1)C(=O)N1CCCC1O2 (racemic) [Compound VII, (R,S)-7-Methoxymethyl-2,3-dihydro-1H-pyrrolo[2,1-b][1,3]benzoxazine-9(3aH)-one]	0.3	0.2
COCc1ccc(C(=O)N2CCCCC2)cc1 [Compound I, 1-(4'-Methoxymethylbenzoyl)piperidine]	0.3	0.3
COCc1cccc(C(=O)N2CCCCC2)c1 [Compound II, 1-(3'-Methoxymethylbenzoyl)piperidine]	0.3	> 1
CCOCc1ccc(C(=O)N2CCCCC2)cc1 [Compound III, 1-(4'-Ethoxymethylbenzoyl)piperidine]	> 1	0.2
O=C(c1ccc(CO)cc1)N1CCCCC1 [Compound IV, 1-(4'-Hydroxymethylbenzoyl)piperidine]	1	> 1
O=C(c1ccc(COc2ccc3c(c2)OCO3)cc1)N1CCCCC1 [Compound V, 1-(4'-(3",4"-Methylenedioxyphenoxy)-methylbenzoyl)piperidine]	0.05	> 0.1

Reference: patent US5783587A, “Benzoyl Piperidines/pyrrolidines for enhancing synaptic response” (The Regents of the University of California, priority 1997, dated 1998)
